Laboratory results as given in patent publication US12685708B2, “Skin care composition” (BEIERSDORF AG, priority 2019, dated 2026).

Experiments:
Format in all cases: cell-based, Cutibacterium acnes
C. acnes strain C3 = experiment: Evaluation of the minimum inhibitory concentration (MIC) of cosmetic excipients; conditions: % w/vol, incubated anaerobically 3 days at 37° C., scored for growth or complete growth inhibition
Description: (§1) In microbiology, the MIC is the lowest concentration of a chemical which prevents visible growth of bacterium. The resulted MIC value depends both on the microorganism and the test compound. The MIC is determined by preparing concentrations series of the test compound in vitro, incubating the solutions with the separate batches of cultured bacteria, and measuring the results using agar dilution or broth microdilution. For the experiments with C. acnes strains C3 and K8, media comprising yeast extract soy peptone and dextrose were used. The MIC is determined by turbidity.
(§2) A total of 125 cosmetic excipients were tested for their compatibility with C. acnes strains C3 and K8. Hydrophilic compounds were tested in a 96-well plate liquid broth format, poorly soluble compounds were pre-dissolved in DMSO before dilution in liquid broth and hydrophobic or solid compounds were tested in an agar well diffusion test assay. The different dilutions of the test excipients in media were prepared in Falcon tubes and then distributed in a deep well plate using a multistepper. Each well received 1.2 ml and was subsequently inoculated with 120 μl of C. acnes bacteria suspension (strain C3 and K8). From the deep well plate 200 μl were transferred in each well of a clear 96 well replicate plate. The leftover was discarded. The plates were then incubated anaerobically for 3 days at 37° C. Following incubation, the test plates were visually examined and wells were scored for growth or complete growth inhibition to define the minimum inhibitory concentration.
(§3) These excipients are listed in the below table with their compatibility values for C. acnes strains C3 and K8. The compatibility values represent the MIC value of the listed ingredients with the tested C. acnes strains. At this concentration [% w/vol] the tested compound starts interfering with the growth of the tested strains. The compounds can be used in formulations at concentrations below this concentration.

C. acnes strain K8 = experiment: as above; conditions: % w/vol, incubated anaerobically 3 days at 37° C., scored for growth or complete growth inhibition
Description: as §1, §2, §3

[1] = tested on: freeze-dried C. acnes strains K8 and C3; experiment: Reactivation assay of freeze dried bacteria in formulations (CFU count); conditions: statement in the description
Source text: For this purpose, a freeze-dried powder of C. acnes strains K8 and C3 was produced and mixed with other ingredients as indicated below. Ingredients are listed in % (w/w). The formulations were provided in two pre-mixed compositions A and B that were finally mixed with each other. The following formulations were made: […]
The formulations are depicted in the form of a table in FIG. 1. For formulations 1-11, the CFU target value was 1×10^7. For formulations 12-15, the CFU target value was 1×10^6. A CFU count was performed directly after mixing the formulation to assess the effect of the prototype formulation on the revival and subsequent stability rate of the bacteria. Briefly, the formula component A (lyophilisate/oil suspension) and the formula component B (hydrogel/aqueous solution) are mixed together and well vortexed. Directly after mixing an aliquot is removed and transferred to 0.9% NaCl. Further dilutions are plated on COST agar plates and incubated anaerobically at 37° C. for 5 days.
Similar to the formulations tested in Example 2, another set of 11 prototype formulations was prepared with higher concentrations of the excipients of the invention. The formulations were tested as described in Example 2 for their impact on reactivation of freeze-dried C. acnes bacteria. As a control, a formulation containing the lyophilisate and low amounts of the excipients was prepared. […]

Row | Compound | COMPATABILITY VALUE C3 [%] (MIC) (C. acnes strain C3) | COMPATABILITY VALUE K8 [%] (MIC) (C. acnes strain K8) | interference with viability and replication capability of the lyophilized or spray-dried bacteria [1]
1 | CCCCCCC(O)CO (stereo not drawn) [caprylyl glycol] | 0.18 | 0.18 | –
2 | O=C(O)CC(O)(CC(=O)O)C(=O)O [citric acid] | 0.33 | 0.08 | –
3 | CC(CO)CO [methylpropanediol] | 4.00 | 4.00 | –
4 | CC(=O)Oc1c(C)c(C)c2c(c1C)CCC(C)(CCC[C@H](C)CCC[C@H](C)CCCC(C)C)O2 (stereo partly drawn) [tocopheryl acetate] | 1.00 | 1.00 | –
5 | ethylhexyl cocoate | 10.00 | 10.00 | –
6 | peg-40 hydrogenated castor oil | 1.00 | 1.00 | does not interfere
7 | tocopherol | 1.50 | 1.50 | –
